The values that follow come from US7510852B2, “Biosynthetic genes and host cells for the synthesis of polyketide antibiotics and method of use” (priority 2002, dated 2009).

The subject of data set [1] is E. coli DH5αKT clones that spontaneously grew within the growth inhibition zone of a pALB571-pOp3-4/XALB2-3 exconjugant. As to the kind of experiment: Cross-resistance test: albicidin production assay with X. albilineans Xa23R1. It counts as cell-based, Escherichia coli. As to conditions: albicidin produced by X. albilineans Xa23R1; two clones as tester strains. As for the experimental part:
Assay of albicidin production. Albicidin production was tested by a microbiological assay as described previously (Rott et al., 1996). Rifampicin and kanamycin exconjugants were spotted with sterile toothpicks (2-mm-diameter spots) onto plates of SPA medium (2% sucrose, 0.5% peptone, 1.5% agar) and incubated at 28° C. for 2-5 days. The plates were then overlaid with a mixture of E. coli DH5α (10^7 cells in 2 ml of distilled water) plus 2 ml of molten 1.5% (wt/vol) Noble agar (Difco) at ca. 65° C. and examined for inhibition zones after 24 h at 37 C.
Two E. coli DH5αKT clones, that spontaneously grew within the growth inhibition zone of a X. axonopodis pv. vesicatoria pALB571-pOp3-4/XALB2-3 exconjugant on SPA+tetracycline medium, were isolated and tested for resistance to albicidin. […] Comparison of chemical characteristics of the two molecules will, however, be necessary to confirm that the two molecules are identical.

The test system of data set [2] is chloroplast DNA replication. As to conditions: Birch and Patil, 1983-1987; cited from earlier work.
Data set [3] concerns prokaryotic DNA replication. As to conditions: Birch and Patil, 1985a; cited from earlier work.
Data set [4] relates to gram-positive and gram-negative bacteria. To be noted: range of gram-positive and gram-negative bacteria; Birch and Patil, 1985a; cited from earlier work.
The test system of data set [5] is proteases. To be noted: Birch and Patil, 1985a; cited from earlier work.

Consider albicidin, for which the “growth inhibition of clones resistant to the albicidin-like product” value in data set [1] is “No growth inhibition”. In data set [2], the “effect on chloroplast DNA replication” value is “inhibits chloroplast DNA replication”. Moreover, in data set [3], the “effect on prokaryotic DNA replication” value is given as “inhibits prokaryotic DNA replication”. Moreover, the bactericidal activity result in data set [4] is on record as “bactericidal”. For the same substance, the sensitivity to proteases result in data set [5] was “insensitive to proteases”.
